Key:
[1] = In Vitro Microsome Stability Assay (rat); assay type: in vitro ADME; conditions: rat, 30 min, NADPH
In short: (§1)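 Species liver microsomes in potassium phosphate buffer were preincubated at 37 °C for 3–5 min with test compound (added from 0.25 mM DMSO stock), then started with NADPH. Samples at 0 and 30 min were quenched with acetonitrile containing internal standard and analysed by LC-MS/MS; % remaining at 30 min used analyte/IS AUC ratios relative to t=0.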

[2] = test system: full length TNFα (amino acids 1-233) fused to Gaussia Luciferase; experiment: Dox Induced TNFα-FL-Gluc Assay; assay type: cell-based; conditions: 24 hr, 293FRT/TO; read-out: 24 hr Dox Inducible TNFaFLGluc 293FRT/TO: Mean IC50
In short: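 Stable Flp-In 293 T-REx line expressing doxycycline-inducible full-length TNFα fused to Gaussia luciferase; cells plated the day before, then treated with compound dilutions in doxycycline-containing medium at 37° C, 5% CO2. Unspecified stereocentres mean stereoisomer mixtures were tested.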

[3] = test system: multiple myeloma cell line NCl-H929; experiment: H929 Cell Viability Assay; assay type: cell-based, human; conditions: Homo sapiens, NCI-H929, 48 h, H929, read-out: 48 hr H929 Viability Celltiter-Glo: Mean EC50
In short: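 NCI-H929 myeloma cells in RPMI 1640 with 10% FBS were treated with compound dilutions for 48 h at 37 °C, and viability was then read by CellTiter-Glo luminescence. Compounds drawn without stereochemistry were tested as stereoisomer mixtures.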

[4] = In Vitro Microsome Stability Assay (human); assay type: in vitro ADME; conditions: human, 30 min, NADPH
In short: as §1

[5] = test system: PD1 signal sequence plus 10 amino acids fused to Gaussia Luciferase (PD1-ss+10aa/Gaussia Luciferase); experiment: Dox Induced PD1-ss-Gluc Assay; assay type: cell-based; conditions: 24 hr, 293FRT/TO; read-out: 24 hr Dox Inducible PD1ssGluc 293FRT/TO: Mean IC50
In short: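 Stable Flp-In 293 T-REx line expressing the fusion under tetracycline-inducible control, plated the day before assay. Compound dilutions added with doxycycline and incubated at 37 °C, 5% CO2; unspecified stereocentres mean data refer to stereoisomer mixtures.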

[6] = In Vitro Microsome Stability Assay (mouse); assay type: in vitro ADME; conditions: mouse, 30 min, NADPH
In short: as §1

[7] = In Vitro Microsome Stability Assay (monkey); assay type: in vitro ADME; conditions: monkey, 30 min, NADPH
In short: as §1

[8] = test system: multiple myeloma cell line U266B1; experiment: U266 Cell Viability Assay; assay type: cell-based, human; conditions: Homo sapiens, U-266; 48 hr, U266; read-out: 48 hr U266 Viability Celltiter-Glo: Mean EC50
In short: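 U266B1 myeloma cells in RPMI 1640 with 10% FBS were treated with compound dilutions for 48 h at 37° C, 5% CO2. Viability was read as CellTiter-Glo luminescence. Data for structures drawn without stereochemistry refer to stereoisomer mixtures.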

Liver Microsome Stability-% Left after 30 min w/ NADPH (%) Rat [1] | IC50 [2] | EC50 [3] | Liver Microsome Stability-% Left after 30 min w/ NADPH (%) Human [4] | IC50 [5] | Liver Microsome Stability-% Left after 30 min w/ NADPH (%) Mouse [6] | Liver Microsome Stability-% Left after 30 min w/ NADPH (%) Monkey [7] | EC50 [8] | Structure (SMILES)
50.3% | 886 nM | 1480 nM | 46.7% | 18.5 nM | 60.8% | 38.7% | > 25000 nM | C=C1CN(S(=O)(=O)c2ccc(N(C)C)cc2)CCCN(CC2CCCCC2)CCCN(S(=O)(=O)N2CCc3cc(Br)ccc3C2)C1 [A60, 4-({5-[(6-bromo-1,2,3,4-tetrahydroisoquinolin-2-yl)sulfonyl]-9-(cyclohexylmethyl)-3-methylidene-1,5,9-triazacyclododecan-1-yl}sulfonyl)-N,N-dimethylaniline]
19.6% | > 25000 nM | > 25000 nM | 13.3% | 956 nM | 17.9% | 8.96% | > 25000 nM | COC1CN(S(=O)(=O)c2ccc(N(C)C)cc2)CCCN(CC2CCCCC2)CCCN(S(=O)(=O)N2CCC(c3ccccc3)CC2)C1 (stereo not drawn) [A61, 4-{[9-(cyclohexylmethyl)-3-methoxy-5-[(4-phenylpiperidin-1-yl)sulfonyl]-1,5,9-triazacyclododecan-1-yl]sulfonyl}-N,N-dimethylaniline]
88.2% | 1870 nM | 7430 nM | 76.4% | 43.6 nM | 85.2% | 84.4% | > 25000 nM | C=C1CN(S(=O)(=O)c2ccc(N(C)C)cc2)CCCN(CC2CCCCC2)CCCN(S(=O)(=O)N2CCc3cc(-c4ccccc4)ccc3C2)C1 [A63, 4-((9-(cyclohexylmethyl)-3-methylene-5-((6-phenyl-3,4-dihydroisoquinolin-2(1H)-yl)sulfonyl)-1,5,9-triazacyclododecan-1-yl)sulfonyl)-N,N-dimethylaniline]
63.1% | 3290 nM | 6400 nM | 53.3% | 75 nM | 53.1% | 48% | > 25000 nM | C=C1CN(S(=O)(=O)c2ccc(N(C)C)cc2)CCCN(CC2CCCCC2)CCCN(S(=O)(=O)N2CCC(C3CCCC3)CC2)C1 [A64, 4-{[9-(cyclohexylmethyl)-5-[(4-cyclopentylpiperidin-1-yl)sulfonyl]-3-methylidene-1,5,9-triazacyclododecan-1-yl]sulfonyl}-N,N-dimethylaniline]
78% | 8720 nM | > 25000 nM | 53.1% | 154 nM | 73.4% | 57.8% | > 25000 nM | C=C1CN(S(=O)(=O)c2ccc(N(C)C)cc2)CCCN(CC2CCCCC2)CCCN(S(=O)(=O)N2CCC(C3CCCCC3)CC2)C1 [A65, 4-{[9-(cyclohexylmethyl)-5-[(4-cyclohexylpiperidin-1-yl)sulfonyl}-3-methylidene-1,5,9-triazacyclododecan-1-yl]sulfonyl}-N,N-dimethylaniline]
0.39% | 3500 nM | 9210 nM | 0.13% | 188 nM | 0.02% | 0.35% | > 25000 nM | C=C1CN(S(=O)(=O)c2ccc(N(C)C)cc2)CCCN(CC2CCCCC2)CCCN(S(=O)(=O)N2CCC(OC(C)C)CC2)C1 [A66, 4-{[9-(cyclohexylmethyl)-3-methylidene-5-{[4-(propan-2-yloxy)piperidin-1-yl]sulfonyl}-1,5,9-triazacyclododecan-1-yl]sulfonyl}-N,N-dimethylaniline]
45.4% | 937 nM | 2400 nM | 33.2% | 40.8 nM | 28% | 27.6% | > 25000 nM | C=C1CN(S(=O)(=O)c2ccc(N(C)C)cc2)CCCN(CC2CCCCC2)CCCN(S(=O)(=O)N2CC=C(C3=CCCC3)CC2)C1 [A67, 4-{[9-(cyclohexylmethyl)-5-{[4-(cyclopent-1-en-1-yl)-1,2,3,6-tetrahydropyridin-1-yl]sulfonyl}-3-methylidene-1,5,9-triazacyclododecan-1-yl]sulfonyl}-N,N-dimethylaniline]

The next lines start with the compound.

Structure (SMILES) | Liver Microsome Stability-% Left after 30 min w/ NADPH (%) Rat [1] | IC50 [2] | EC50 [3] | Liver Microsome Stability-% Left after 30 min w/ NADPH (%) Human [4] | IC50 [5] | Liver Microsome Stability-% Left after 30 min w/ NADPH (%) Mouse [6] | Liver Microsome Stability-% Left after 30 min w/ NADPH (%) Monkey [7] | EC50 [8]
CN(C)c1ccc(S(=O)(=O)N2CCCN(CC3CCCCC3)CCCN(S(=O)(=O)N3CCC(c4ccccc4)CC3)CC(O)C2)cc1 (stereo not drawn) [A55, 9-(cyclohexylmethyl)-1-[4-(dimethylamino)benzenesulfonyl]-5-[(4-phenylpiperidin-1-yl)sulfonyl]-1,5,9-triazacyclododecan-3-ol] | 0.97% | > 25000 nM | > 25000 nM | 4.87% | 1540 nM | 1.18% | 0.34% | > 25000 nM
C=C1CN(S(=O)(=O)c2ccc(N(C)C)cc2F)CCCN(CC2CCCCC2)CCCN(S(=O)(=O)N2CCc3cc(Cl)ccc3C2)C1 [A56, 4-({5-[(6-chloro-1,2,3,4-tetrahydroisoquinolin-2-yl)sulfonyl]-9-(cyclohexylmethyl)-3-methylidene-1,5,9-triazacyclododecan-1-yl}sulfonyl)-3-fluoro-N,N-dimethylaniline] | 57.3% | 1260 nM | 1630 nM | 44.5% | 32.8 nM | 53.2% | 42.6% | > 25000 nM
C=C1CN(S(=O)(=O)c2ccc(N(C)C)cc2)CCCN(CC2CCCCC2)CCCN(S(=O)(=O)N2CCC(c3ccccc3Cl)CC2)C1 [A57, 4-[(5-{[4-(2-chlorophenyl)piperidin-1-yl]sulfonyl}-9-(cyclohexylmethyl)-3-methylidene-1,5,9-triazacyclododecan-1-yl)sulfonyl]-N,N-dimethylaniline] | 84% | 7810 nM | > 25000 nM | 31.9% | 73.4 nM | 60.2% | 28.5% | > 25000 nM
C=C1CN(S(=O)(=O)c2ccc(N(C)C)cc2)CCCN(CC2CCCCC2)CCCN(S(=O)(=O)N2CCC(c3cccc(Cl)c3)CC2)C1 [A58, 4-[(5-{[4-(3-chlorophenyl)piperidin-1-yl]sulfonyl}-9-(cyclohexylmethyl)-3-methylidene-1,5,9-triazacyclododecan-1-yl)sulfonyl]-N,N-dimethylaniline] | 66.7% | 8500 nM | > 25000 nM | 31.6% | 72.1 nM | 72.8% | 53.1% | > 25000 nM
C=C1CN(S(=O)(=O)c2ccc(N(C)C)cc2)CCCN(CC2CCCCC2)CCCN(S(=O)(=O)N2CCc3cc(F)ccc3C2)C1 [A59, 4-{[9-(cyclohexylmethyl)-5-[(6-fluoro-1,2,3,4-tetrahydroisoquinolin-2-yl)sulfonyl]-3-methylidene-1,5,9-triazacyclododecan-1-yl]sulfonyl}-N,N-dimethylaniline] | 3.9% | 616 nM | 1440 nM | 1.89% | 24.2 nM | 3.73% | 1.94% | > 25000 nM

— US11578055B2, “Triazacyclododecansulfonamide (“TCD”)-based protein secretion inhibitors” (KEZAR LIFE SCIENCES, priority 2018, dated 2023)
